Patent US6689596B2, “High level expression of human cyclooxygenase-2” (Merck & Co., Inc., priority 1992, dated 2004)

Tests used:
[1] = biological target: T1, cyclooxygenase-1 (U-937 microsomes) (Homo sapiens, UniProt P23219); test: Microsomal cyclooxygenase assay, U-937 microsomes; type: biochemical; conditions: 20 μM arachidonic acid
T1 construct: host or cells: microsomal fraction of U-937 cells
Description: COX-1 cells are grown and maintained in culture as described above, washed in a suitable buffer, such as PBS, and cell pellets or concentrates stored, preferably at −80° C. […] The cell homogenate is then concentrated and resuspended. In our preferred procedure the cell homogenate is centrifuged at 10,000× g for 10 minutes at 4° C. The supernatant fraction is then recentrifuged at 100,000× g for 2 hours at 4° C., and the resulting microsomal pellet resuspended in a suitable buffer, such as 0.1 M Tris-HCl, 1 mM EDTA, pH 7.4 to a protein concentration of approximately 1 to 10 mg/ml. Aliquots of osteosarcoma microsomal preparations may be stored at reduced temperature and thawed prior to use.
(§1) Microsomal preparations from Human osteosarcoma and U937 cells are diluted in buffer, such as 0.1 M Tris-HCl, 10 mM EDTA, pH 7.4, (Buffer A) to a protein concentration of 50 to 500 µg/ml. […] Typically, assays are performed in either duplicate or triplicate. Peroxide-free arachidonic acid (CAYMAN) in Buffer A is then added to a final concentration of 20 μM arachidonic acid, followed by incubation, preferably at room temperature for 10 to 60 minutes. Control samples contained ethanol or other vehicle instead of arachidonic acid. Following incubation, the reaction was terminated by addition of HCl or other mineral acid. Prior to analysis of PGE2 levels, samples were neutralized. Levels of PGE2 in samples may be quantitated as described for the whole cell cyclooxygenase assay.
U-937 cells were grown and maintained in culture as described above, washed in PBS, and cell pellets frozen at −80° C. […] The cell homogenate was then centrifuged at 10,000× g for 10 minutes at 4° C. The supernatant fraction was then recentrifuged at 100,000× g for 2 hours at 4° C., and the resulting microsomal pellet resuspended in 0.1 M Tris-HCl, 1 mM EDTA, pH 7.4 to a protein concentration of approximately 4 mg/ml. 500 μl aliquots of osteosarcoma microsomal preparations were stored at −80° C. and thawed on ice immediately prior to use.
All subsequent assay steps, including the dilution of stock solutions of test compounds, were automated using the BIOMEK 100 (BIORAD). 5 μl of test compound or DMSO vehicle was added, with mixing, to 20 μl of buffer A in a 96-well minitube plate (BECKMAN). 200 μl of microsome suspension was then added, followed by mixing and incubation for 5 minutes at room temperature. Assays were performed in either duplicate or triplicate. […] of peroxide-free arachidonic acid (CAYMAN) in buffer A is then added to a final concentration of 20 μM aracidonic acid, with mixing, followed by incubation at room temperature for 40 minutes. Control samples contained ethanol vehicle instead of arachidonic acid. Following the incubation period, the reaction was terminated by the addition of 25 μl of 1N HCl, with mixing. Prior to analysis of PGE2 levels, samples were neutralized by the addition of 25 μl of 1 N NaOH. Levels of PGE2 in samples were quantitated by enzyme immunoassay (CAYMAN) as described for the whole cell cyclooxygenase assay.

[2] = biological target: T2, cyclooxygenase-2 (osteosarcoma 143.98.2 microsomes) (Homo sapiens, UniProt P35354); test: Microsomal cyclooxygenase assay, osteosarcoma 143.98.2 microsomes; type: biochemical; conditions: 20 μM arachidonic acid
T2 construct: The cell homogenates were then subjected to a differential centrifugation protocol to yield an enriched microsomal preparation; endogenous in cells; host or cells: microsomal fraction of human osteosarcoma 143.98.2 cells
T2 sequence (P35354 18-604): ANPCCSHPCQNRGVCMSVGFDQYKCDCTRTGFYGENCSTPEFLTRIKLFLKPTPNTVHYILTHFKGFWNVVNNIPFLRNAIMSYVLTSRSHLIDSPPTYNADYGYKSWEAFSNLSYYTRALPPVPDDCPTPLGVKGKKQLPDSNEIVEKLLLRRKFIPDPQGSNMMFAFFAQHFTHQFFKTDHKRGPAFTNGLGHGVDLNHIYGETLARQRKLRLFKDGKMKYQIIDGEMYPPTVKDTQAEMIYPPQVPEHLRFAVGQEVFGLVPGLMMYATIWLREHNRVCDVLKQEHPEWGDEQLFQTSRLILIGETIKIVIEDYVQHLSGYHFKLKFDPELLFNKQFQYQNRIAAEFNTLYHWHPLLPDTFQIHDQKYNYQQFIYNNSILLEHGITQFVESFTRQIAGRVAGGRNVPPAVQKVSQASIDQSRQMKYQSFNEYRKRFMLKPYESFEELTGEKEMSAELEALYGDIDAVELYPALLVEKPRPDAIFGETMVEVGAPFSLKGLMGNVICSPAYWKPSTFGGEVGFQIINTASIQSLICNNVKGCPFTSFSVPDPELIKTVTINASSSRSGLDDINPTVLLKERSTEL
Description: Human osteosarcoma cells may be grown and maintained in culture as described above. Approximately 10^5 to 10^7 cells are plated in tissue culture plates such as available from NUNCLON and maintained in culture for 2 to 7 days. Cells may be washed with a suitable buffer such phosphate buffered saline, (PBS), pH 7.2. Cells are then removed from the plate, preferably by scraping into PBS. Samples may then be concentrated, such as by centrifuging at 400× g for 10 minutes at 4° C. Cell pellets or other concentrates are either stored at a suitable reduced temperature such as −80° C., or processed immediately. All further manipulations of the cells are preferably performed at 0-4° C. […] Enriched microsomal preparations are then prepared, such as by differential centrifugation to yield an enriched microsomal preparation. In our preferred procedure, the first step consists of four sequential centrifugations of the cell homogenate at 10,000× g for 10 min at 4° C. After each centrifugation at 10,000×.g, the supernatant is retained and recentrifuged. Following the fourth centrifugation, the supernatant is centrifuged at 100,000× g for 60-90 min at 4° C. to pellet the microsomal fraction. […] The resulting microsomal suspension is recentrifuged such as at 100,000× g for 90 min at 4° C. to recover the microsomes. Following this centrifugation the microsomal pellet is resuspended in a stabilizing buffer, such as 0.1 M Tris-Cl, pH 7.4, containing 10 mM EDTA at a protein concentration of approximately 2-5 mg/ml. Aliquots of osteosarcoma microsomal preparations may be stored at low temperature, such as at −80° C. and thawed prior to use.
as §1
Cells were washed twice with 100 ml of phosphate buffered saline, pH 7.2, (PBS) and then scraped from the plate with a sterile rubber scraper into PBS. Samples were then centrifuged at 400× g for 10 minutes at 4° C. Cell pellets were either stored at −80° C. until use or processed immediately. All further manipulations of the cells were performed at 0-4° C. […] The cell homogenates were then subjected to a differential centrifugation protocol to yield an enriched microsomal preparation. The first step consisted of four sequential centrifugations of the cell homogenate at 10,000× g for 10 min at 4° C. After each centrifugation at 10,000× g the supernatant was retained and recentrifuged. Following the fourth centrifugation, the supernatant was centrifuged at 100,000× g for 60-90 min at 4° C. to pellet the microsomal fraction. […] The resulting microsomal suspension was recentrifuged at 100,000× g for 90 min at 4° C. to recover the microsomes. […] 500 μl aliquots of osteosarcoma microsomal preparations were stored at −80° C. and thawed on ice immediately prior to use.
All subsequent assay steps, including the dilution of stock solutions of test compounds, were automated using the BIOMEK 100 (BIORAD). 5 μl of test compound or DMSO vehicle was added, with mixing, to 20 μl of buffer A in a 96-well minitube plate (BECKMAN).

[3] = biological target: T3, cyclooxygenase-1 (U-937 cells) (Homo sapiens, UniProt P23219); test: Whole cell cyclooxygenase assay, PGE2 synthesis by U-937 cells in response to exogenous arachidonic acid; type: cell-based
T3 construct: the appropriate number of U-937 cells were removed from spinner cultures and centrifuged; host or cells: U-937 human histiocytic lymphoma cells (intact)
Description: Such cells are hereinafter described as COX-1 cells. Prior to assay, the appropriate number of COX-1 cells (10^5 to 10^7 cells/ml) are removed from cultures and concentrated using a technique such as by centrifugation at 300× g for 10 minutes. The supernatant is decanted and cells are washed in a suitable buffer. […] Following incubation of human osteosarcoma cells or COX-1 cells in a suitable buffer, a test compound and/or vehicle samples (such as DMSO) is added, and the resulting composition gently mixed. Preferably the assay is performed in triplicate. Arachidonic acid is then added in proportions as described above. […] Control samples should contain ethanol or other vehicle instead of arachidonic acid. […] For osteosarcoma cells, reactions may be stopped by the addition HCl or other acid, preferably combined with mixing, or by the rapid removal of media directly from cell monolayers. For U-937 cells, reactions may be advantageously be performed in multiwell dishes or microcentrifuge tubes and stopped by the addition of HCl or another mineral acid. Typically, samples assayed in 24-multidishes are then transferred to microcentrifuge tubes, and all samples frozen on dry ice. Similarly, samples are typically stored at -20° C. or below prior to analysis of PGE2 levels. […] Samples are then preferably mixed, such as by vortexing, and PGE2 levels measured using a PGE2 enzyme immunoassay, such as is commercially available from CAYMAN. We have advantageously conducted the plating, washing and color development steps as an automated sequence using a BIOMEK 1000 (BECKMAN). […] Levels of PGE2 are calculated from the standard curve, and may optionally determined using BECKMAN IMMUNOFIT EIA/RIA analysis software. […] Inhibition of PGE2 synthesis by test compounds is calculated between PGE2 levels in samples incubated in the absence or presence of […]. […] For routine subculturing, cells were diluted in fresh medium and transferred to fresh flasks. […] The supernatant was decanted and cells washed in 50 ml of HBSS prewarmed to 37° C. Cells were again pelleted at 300× g for 10 minutes and resuspended in prewarmed HBSS to a final cell density of approximately 1.5×10^6 cells/ml. 1 ml aliquots of cell suspension were transferred to 1.5 ml microcentrifuge tubes or 24-well multidishes (Nunclon). […] All assays were performed in triplicate. […] Control samples contained ethanol vehicle instead of arachidonic acid. Samples were again gently mixed and incubated for a further 10 minutes at 37° C. […] For U-937 cells, reactions in multiwell dishes or microcentrifuge tubes were stopped by the addition of 100 μl of 1N HCl, with mixing. Samples assayed in 24-multidishes were then transferred to microcentrifuge tubes, and all samples were frozen on dry ice. Samples were stored at -20° C. prior to analysis of PGE2 levels. […] Samples were then mixed by vortexing, and PGE2 levels measured using a PGE2 enzyme immunoassay (CAYMAN) according to the manufacturers instructions. The plating, washing and colour development steps of this procedure were automated using a BIOMEK 1000 (BECKMAN). […] Levels of PGE2 were calculated from the standard curve determined using BECKMAN IMMUNOFIT EIA/RIA analysis software.

osteosarcoma 143 cells = test: PGE2 synthesis by osteosarcoma 143 cells in response to arachidonic acid after treatment with growth factors/cytokines; type: cell-based, human; conditions: 10 pg/ml; within a 3-hour period, 1% serum; relative to cells grown in the absence of these factors

T1 sequence (P23219 24-599): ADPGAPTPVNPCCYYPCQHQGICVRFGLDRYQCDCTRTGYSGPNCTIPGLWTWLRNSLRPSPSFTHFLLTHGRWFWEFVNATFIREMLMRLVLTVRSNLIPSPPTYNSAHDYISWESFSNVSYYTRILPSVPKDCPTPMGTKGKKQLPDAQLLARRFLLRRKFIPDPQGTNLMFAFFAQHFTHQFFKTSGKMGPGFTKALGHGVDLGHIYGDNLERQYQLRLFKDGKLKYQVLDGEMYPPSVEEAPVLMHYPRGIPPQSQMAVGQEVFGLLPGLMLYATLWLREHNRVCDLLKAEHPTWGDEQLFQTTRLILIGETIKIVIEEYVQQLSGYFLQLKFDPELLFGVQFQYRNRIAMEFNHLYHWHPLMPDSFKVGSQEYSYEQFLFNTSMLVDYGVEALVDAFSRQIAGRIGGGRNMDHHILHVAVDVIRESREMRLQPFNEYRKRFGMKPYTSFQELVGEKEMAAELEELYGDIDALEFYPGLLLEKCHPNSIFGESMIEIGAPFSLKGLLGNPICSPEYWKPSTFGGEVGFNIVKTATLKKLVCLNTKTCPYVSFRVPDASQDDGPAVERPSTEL
T3 sequence (P23219 24-599): as above

inhibition at 0.1 µM ([1]; drug 100 nM) [%] | inhibition at 3 µM ([1]; drug 3 uM) [%] | 143.98.2 % Inhibition ([2]; drug 100 nM) [%] | 143.98.2 % Inhibition ([2]; drug 3 uM) [%] | U-937 % Inhibition ([1]; drug 100 nM) [%] | U-937 % Inhibition ([1]; drug 3 uM) [%] | Compound | further results
6 | 48 |  |  |  |  | CS(=O)(=O)c1ccc(-c2cc(Br)sc2-c2ccc(F)cc2)cc1 [DuP-697] | 
 |  | 20 | 26 | 0 | 0 | CC(=O)c1ccc(NS(C)(=O)=O)c(Oc2ccc(F)cc2F)c1 [FK-3311] | 
0 | 0 |  |  |  |  | CS(=O)(=O)Nc1cc2c(cc1Oc1ccc(F)cc1F)C(=O)CC2 [Flosulide] | 
 |  |  |  | 57 | 89 | CC(C(=O)O)c1ccc(-c2ccccc2)c(F)c1 (centres unmarked) [Fluribprofen] | 
0 | 0 |  |  |  |  | CS(=O)(=O)Nc1ccc([N+](=O)[O-])cc1OC1CCCCC1 [NS-398] | U-937 PGE2 ([3]; sample 0.3 nM): 18.3 ng/10^6 cells; U-937 PGE2 ([3]; sample 1.0 nM): 17.7 ng/10^6 cells; U-937 PGE2 ([3]; sample 3.0 nM): 18.3 ng/10^6 cells; U-937 PGE2 ([3]; sample 10 nM): 20.4 ng/10^6 cells; U-937 PGE2 ([3]; sample 30.0 nM): 17.7 ng/10^6 cells; U-937 PGE2 ([3]; sample 100 nM): 18.9 ng/10^6 cells
0 | 4 |  |  |  |  | CSc1ccc(/C=C2/C(C)=C(CC(=O)O)c3cc(F)ccc32)cc1 [Sulindac sulfide] | 
 |  | 45 | 66 | 30 | 67 | Cc1cc(CC(=O)O)n(C)c1C(=O)c1ccc(Cl)cc1 [Zomipirac] | 
 |  |  |  |  |  | IL1-β: human recombinant IL1-β (R and D systems Inc.) | levels of PGE2 synthesis by osteosarcoma 143 cells in response to arachidonic acid (osteosarcoma 143 cells): increased

Compound | inhibition at 0.1 µM ([1]; drug 100 nM) [%] | inhibition at 3 µM ([1]; drug 3 uM) [%] | 143.98.2 % Inhibition ([2]; drug 100 nM) [%] | 143.98.2 % Inhibition ([2]; drug 3 uM) [%] | U-937 % Inhibition ([1]; drug 100 nM) [%] | U-937 % Inhibition ([1]; drug 3 uM) [%] | further results
O=C(O)c1ccccc1Nc1cccc(C(F)(F)F)c1 [Flufenamic] |  |  | 16 | 36 | 5 | 0 | 
